Measured values from US11739098B2 (BRISTOL-MYERS SQUIBB COMPANY, priority 2017, dated 2023).

Tests used:
Assay type in all cases: cell-based
human TLR8 = target: T1, human TLR8 (Homo sapiens, UniProt Q9NR97); assay: TLR8 inhibition reporter assay (HEK-Blue cells, SEAP reporter, R848 stimulation); details: HEK-Blue cells overexpressing human TLR8, SEAP reporter, R848 15.9 μM
T1 construct: host or cells: HEK-Blue cells (HEK293-derived reporter line)
T1 sequence (Q9NR97 27-1041): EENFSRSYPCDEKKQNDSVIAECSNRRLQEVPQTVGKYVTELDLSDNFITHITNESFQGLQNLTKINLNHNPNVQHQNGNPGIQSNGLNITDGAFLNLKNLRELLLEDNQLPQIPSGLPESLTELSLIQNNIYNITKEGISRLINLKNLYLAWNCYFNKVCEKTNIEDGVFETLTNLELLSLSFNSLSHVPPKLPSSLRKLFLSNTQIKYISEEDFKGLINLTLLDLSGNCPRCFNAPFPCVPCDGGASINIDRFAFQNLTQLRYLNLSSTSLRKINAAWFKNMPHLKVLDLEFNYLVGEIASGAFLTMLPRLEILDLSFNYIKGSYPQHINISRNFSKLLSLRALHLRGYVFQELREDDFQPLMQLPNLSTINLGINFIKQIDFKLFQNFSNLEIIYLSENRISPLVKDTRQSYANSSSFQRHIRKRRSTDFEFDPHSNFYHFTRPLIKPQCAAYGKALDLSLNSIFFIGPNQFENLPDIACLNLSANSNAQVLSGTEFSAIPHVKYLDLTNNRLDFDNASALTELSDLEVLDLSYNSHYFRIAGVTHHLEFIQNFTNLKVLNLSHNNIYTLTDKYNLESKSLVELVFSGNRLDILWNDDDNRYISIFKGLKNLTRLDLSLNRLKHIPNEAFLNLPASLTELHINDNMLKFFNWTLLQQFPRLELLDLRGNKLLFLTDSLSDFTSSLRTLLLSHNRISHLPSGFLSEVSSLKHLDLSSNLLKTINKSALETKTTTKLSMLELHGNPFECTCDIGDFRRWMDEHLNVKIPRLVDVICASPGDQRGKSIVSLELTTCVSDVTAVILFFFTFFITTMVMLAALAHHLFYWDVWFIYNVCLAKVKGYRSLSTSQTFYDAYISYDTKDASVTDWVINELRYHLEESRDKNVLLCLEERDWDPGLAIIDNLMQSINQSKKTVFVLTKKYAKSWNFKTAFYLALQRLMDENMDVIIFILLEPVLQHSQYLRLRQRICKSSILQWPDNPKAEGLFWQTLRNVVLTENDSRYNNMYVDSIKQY
Method in brief: (§1)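 Cells seeded per well (15000 TLR7, 20,000 TLR8, 25,000 TLR9); compound added over 0.05 nM–50 μM for 30 min at room temperature; agonist added (TLR7 gardiquimod 7.5 μM, TLR8 R848 15.9 μM, TLR9 ODN2006 5 nM); 22 h at 37 °C; SEAP measured; percent inhibition calculated.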

human TLR7 = target: T2, human TLR7 (Homo sapiens, UniProt Q9NYK1); assay: TLR7 inhibition reporter assay (HEK-Blue cells, SEAP reporter, gardiquimod stimulation); details: HEK-Blue cells overexpressing human TLR7, SEAP reporter, gardiquimod 7.5 μM
T2 construct: host or cells: HEK-Blue cells (HEK293-derived reporter line)
T2 sequence (Q9NYK1 27-1049): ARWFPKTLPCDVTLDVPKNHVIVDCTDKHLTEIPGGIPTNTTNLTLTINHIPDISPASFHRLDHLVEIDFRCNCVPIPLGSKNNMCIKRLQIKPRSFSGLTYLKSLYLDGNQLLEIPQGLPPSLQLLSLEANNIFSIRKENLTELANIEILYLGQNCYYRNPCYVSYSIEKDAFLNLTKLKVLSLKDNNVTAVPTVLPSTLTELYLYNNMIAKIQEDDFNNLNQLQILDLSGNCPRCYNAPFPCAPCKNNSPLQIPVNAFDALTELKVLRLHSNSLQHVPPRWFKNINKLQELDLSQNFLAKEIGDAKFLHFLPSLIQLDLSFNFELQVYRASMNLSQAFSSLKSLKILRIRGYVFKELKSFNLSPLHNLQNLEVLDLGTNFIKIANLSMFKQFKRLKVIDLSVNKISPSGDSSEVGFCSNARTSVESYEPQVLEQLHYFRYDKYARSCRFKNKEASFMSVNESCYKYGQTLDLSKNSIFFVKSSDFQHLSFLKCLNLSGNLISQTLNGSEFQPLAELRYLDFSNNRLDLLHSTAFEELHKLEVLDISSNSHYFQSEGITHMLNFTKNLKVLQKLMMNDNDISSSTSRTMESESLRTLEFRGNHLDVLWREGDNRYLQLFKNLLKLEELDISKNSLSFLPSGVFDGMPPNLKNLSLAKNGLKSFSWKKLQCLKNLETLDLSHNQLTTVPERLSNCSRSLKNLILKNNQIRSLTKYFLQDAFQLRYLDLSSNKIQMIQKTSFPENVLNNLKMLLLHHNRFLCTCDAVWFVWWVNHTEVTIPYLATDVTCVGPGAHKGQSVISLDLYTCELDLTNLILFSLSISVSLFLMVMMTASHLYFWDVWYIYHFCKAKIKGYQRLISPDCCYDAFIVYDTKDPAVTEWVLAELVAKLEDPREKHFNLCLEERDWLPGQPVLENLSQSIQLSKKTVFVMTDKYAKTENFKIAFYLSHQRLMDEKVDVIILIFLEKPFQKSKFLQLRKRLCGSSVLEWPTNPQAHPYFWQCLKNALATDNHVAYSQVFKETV
Method in brief: as §1

human TLR9 = target: T3, human TLR9 (Homo sapiens, UniProt Q9NR96); assay: TLR9 inhibition reporter assay (HEK-Blue cells, SEAP reporter, ODN2006 stimulation); details: HEK-Blue cells overexpressing human TLR9, SEAP reporter, ODN2006 5 nM
T3 construct: host or cells: HEK-Blue cells (HEK293-derived reporter line)
T3 sequence (Q9NR96 26-1032): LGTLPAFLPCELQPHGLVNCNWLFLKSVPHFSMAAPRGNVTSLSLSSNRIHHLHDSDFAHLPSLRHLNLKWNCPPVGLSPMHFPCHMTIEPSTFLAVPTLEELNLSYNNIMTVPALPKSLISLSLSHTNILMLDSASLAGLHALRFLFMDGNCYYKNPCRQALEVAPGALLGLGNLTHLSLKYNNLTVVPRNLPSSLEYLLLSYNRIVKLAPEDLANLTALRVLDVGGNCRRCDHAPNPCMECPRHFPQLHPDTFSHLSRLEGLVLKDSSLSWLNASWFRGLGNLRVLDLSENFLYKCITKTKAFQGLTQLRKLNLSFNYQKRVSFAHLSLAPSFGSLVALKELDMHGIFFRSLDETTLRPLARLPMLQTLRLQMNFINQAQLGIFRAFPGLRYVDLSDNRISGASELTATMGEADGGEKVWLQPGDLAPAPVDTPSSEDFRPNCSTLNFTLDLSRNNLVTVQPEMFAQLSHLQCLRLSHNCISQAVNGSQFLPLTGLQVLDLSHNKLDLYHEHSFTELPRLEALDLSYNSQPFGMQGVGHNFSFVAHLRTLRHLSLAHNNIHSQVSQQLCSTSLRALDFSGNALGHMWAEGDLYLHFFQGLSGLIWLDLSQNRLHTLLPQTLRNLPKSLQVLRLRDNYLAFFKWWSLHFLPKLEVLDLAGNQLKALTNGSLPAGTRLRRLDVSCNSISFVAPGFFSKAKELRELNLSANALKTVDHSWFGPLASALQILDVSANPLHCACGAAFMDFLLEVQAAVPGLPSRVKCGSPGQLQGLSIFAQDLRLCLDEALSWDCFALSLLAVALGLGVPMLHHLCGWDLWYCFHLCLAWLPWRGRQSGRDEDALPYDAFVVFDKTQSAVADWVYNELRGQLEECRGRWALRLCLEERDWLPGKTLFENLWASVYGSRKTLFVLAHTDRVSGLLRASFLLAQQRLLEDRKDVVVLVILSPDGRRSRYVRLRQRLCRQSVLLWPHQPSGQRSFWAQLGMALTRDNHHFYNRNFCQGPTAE
Method in brief: as §1

Row | IC50 (human TLR8) [nM] | IC50 (human TLR7) [nM] | IC50 (human TLR9) [nM] | SMILES
1 | < 100 | < 100 | 1000 to 50000 | CC(C)c1c(-c2ccnc3[nH]ncc23)[nH]c2ccc(C3CCN(Cc4cnccn4)CC3)cc12 [Example 903, 4-(3-isopropyl-5-(1-(pyrazin-2-ylmethyl)piperidin-4-yl)-1H-indol-2-yl)-1H-pyrazolo[3,4-b]pyridine]
2 | < 100 | < 100 | 1000 to 50000 | Cc1cc(-c2[nH]c3ccc(C4CCN(CC(=O)N(C)C)CC4)cc3c2C(C)C)cc2nccnc12 [Example 395, 2-(4-(3-isopropyl-2-(8-methylquinoxalin-6-yl)-1H-indol-5-yl)piperidin-1-yl)-N,N-dimethylacetamide]
3 | < 100 | 100 to 1000 | 1000 to 50000 | CNC(=O)CN1CCC(c2ccc3[nH]c(-c4ccnc5[nH]ncc45)c(CC(F)F)c3c2)CC1 [Example 387, 2-(4-(3-(2,2-difluoroethyl)-2-(1H-pyrazolo[3,4-b]pyridin-4-yl)-1H-indol-5-yl)piperidin-1-yl)-N-methylacetamide]
4 | 100 to 1000 | 100 to 1000 | 1000 to 50000 | CCc1c(-c2ccnc3[nH]ncc23)[nH]c2ccc(C3CCN(Cc4csc(C(C)C)n4)CC3)cc12 [Example 859, 4-((4-(3-ethyl-2-(1H-pyrazolo[3,4-b]pyridin-4-yl)-1H-indol-5-yl)piperidin-1-yl)methyl)-2-isopropylthiazole]
5 | < 100 | < 100 | 1000 to 50000 | CNC(=O)CN1CCC(c2ccc3[nH]c(-c4ccc5nccn5c4)c(C(C)C)c3c2)CC1 [Example 403, 2-(4-(2-(imidazo[1,2-a]pyridin-6-yl)-3-isopropyl-1H-indol-5-yl)piperidin-1-yl)-N-methylacetamide]

Continued, compound first:

Row | SMILES | IC50 (human TLR8) [nM] | IC50 (human TLR7) [nM] | IC50 (human TLR9) [nM]
6 | CC(C)c1c(-c2ccc3cnnn3c2)[nH]c2ccc(C3CCN(CC(=O)N(C)C)CC3)cc12 [Example 299, 2-(4-(2-([1,2,3]triazolo[1,5-a]pyridin-6-yl)-3-isopropyl-1H-indol-5-yl)piperidin-1-yl)-N,N-dimethylacetamide] | 100 to 1000 | 100 to 1000 | 100 to 1000
7 | CCc1c(-c2cnnc3[nH]ccc23)[nH]c2ccc(C3CCNCC3)cc12 [Example 245, 4-(3-ethyl-5-(piperidin-4-yl)-1H-indol-2-yl)-7H-pyrrolo[2,3-c]pyridazine] | 100 to 1000 | 100 to 1000 | 1000 to 50000
8 | Cc1cn2cc(-c3[nH]c4ccc(C5CCN(C(=O)CN(C)C)CC5)cc4c3C(C)C)cc(C(F)(F)F)c2n1 [Example 511, 2-(dimethylamino)-1-(4-(3-isopropyl-2-(2-methyl-8-(trifluoromethyl)imidazo[1,2-a]pyridin-6-yl)-1H-indol-5-yl)piperidin-1-yl)ethan-1-one] | 100 to 1000 | < 100 | 100 to 1000
9 | Cc1cc(-c2[nH]c3ccc(C4CCN(C(=O)CN5CCS(=O)(=O)CC5)CC4)cc3c2C(C)C)cn2nnnc12 [Example 485, 2-(1,1-dioxidothiomorpholino)-1-(4-(3-isopropyl-2-(8-methyltetrazolo[1,5-a]pyridin-6-yl)-1H-indol-5-yl)piperidin-1-yl)ethan-1-one] | < 100 | < 100 | > 50000
10 | Cc1nn2ccc(-c3[nH]c4ccc(C5CCNCC5)cc4c3C(C)C)nc2c1F [Example 150, 3-fluoro-5-(3-isopropyl-5-(piperidin-4-yl)-1H-indol-2-yl)-2-methylpyrazolo[1,5-a]pyrimidine] | 1000 to 50000 | 1000 to 50000 | 1000 to 50000
11 | CCc1c(-c2ccnc3[nH]ncc23)[nH]c2c(F)cc(C3CCNCC3)cc12 [Example 251, 4-(3-ethyl-7-fluoro-5-(piperidin-4-yl)-1H-indol-2-yl)-1H-pyrazolo[3,4-b]pyridine] | 100 to 1000 | < 100 | 100 to 1000
12 | CC(C)c1c(-c2ccn3nncc3c2)[nH]c2ccc(C3CCN(C4COC4)CC3)cc12 [Example 735, 5-(3-isopropyl-5-(1-(oxetan-3-yl)piperidin-4-yl)-1H-indol-2-yl)-[1,2,3]triazolo[1,5-a]pyridine] | 100 to 1000 | < 100 | 1000 to 50000
13 | Cc1cc(-c2[nH]c3ccc(C4CCN(C(=O)CN(C)C)CC4)cc3c2C(C)C)cc2cccnc12 [Example 529, 2-(dimethylamino)-1-(4-(3-isopropyl-2-(8-methylquinolin-6-yl)-1H-indol-5-yl)piperidin-1-yl) ethan-1-one] | < 100 | < 100 | 1000 to 50000
14 | CC(C)c1c(-c2cnc3ncnn3c2)[nH]c2ccc(C3CCN(C(=O)CN(C)C)CC3)cc12 [Example 554, 1-(4-(2-([1,2,4]triazolo[1,5-a]pyrimidin-6-yl)-3-isopropyl-1H-indol-5-yl)piperidin-1-yl)-2-(dimethylamino)ethan-1-one] | 100 to 1000 | < 100 | 1000 to 50000
